Data set [1] relates to HBV. Nature of the data set: HBV inhibitory activity: HBV DNA in the culture medium of HepG2.2.15 cells by q-PCR. It is filed as cell-based. The following applies: HepG2.2.15 cells, 6 days of compound treatment, HBV DNA in culture medium by q-PCR, highest concentration 10 μM, read-out: EC50. The essentials: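 HepG2.2.15 cells in 2% FBS medium, 40,000 per well, treated 6 days with compound (medium refreshed once), eight 3-fold dilutions from 10 μM top. HBV DNA extracted from culture medium and quantified by q-PCR; EC50 averaged over repeats. Cytotoxicity run in parallel at 5,000 cells per well, top 100 μM, giving CC50.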

Data set [2] in a line: Cytotoxicity determination in HepG2.2.15 cells (CCK-8). Type of data set: cell-based. The settings on record: human, 6 days of compound treatment, CCK-8, highest concentration 100 μM. In a few lines: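 HepG2.2.15 cells seeded at 5,000 cells/well in 2% FBS medium, incubated overnight at 37° C., then treated 6 days with compounds (8 points, 3-fold dilutions, top 100 μM), medium refreshed once midway. CCK-8 added for 2.5 h; A450 read against 630 nm reference; CC50 calculated, averaged over repeats.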

Setting [3] is: Hepatitis B virus, HepG2.2.15, 144 h.

Read-outs that look alike come from different tables or passages of the source.

With `COC(=O)C1=C(C2CCN(S(=O)(=O)c3cn(C)cn3)CC2)NC(c2nccs2)=NC1c1ccc(F)cc1Cl` (stereo not shown) [Compound 201A, Methyl 4-(2-chloro-4-fluorophenyl)-6-(1-((1-methyl-1H-imidazol-4-yl)sulfonyl)piperidin-4-yl)-2-(thiazol-2-yl)-1,4-dihydropyrimidine-5-carboxylate], the EC50 – broadly, the concentration needed to bring the measured effect to its halfway point – in data set [1] (setting [3]) turned out to be 53 nM. For the same compound, the midpoint of cytotoxicity in data set [2], the CC50 at 6 days, lay at 15700 nM.

`COC(=O)C1=C(C23CC(NS(C)(=O)=O)(C2)C3)NC(c2nccs2)=NC1c1ccc(F)c(F)c1Cl` (stereo not shown) [Compound 204A, Methyl 4-(2-chloro-3,4-difluorophenyl)-6-(3-(methyl-sulfonamido)bicyclo[0.1.1.1]pentan-1-yl)-2-(thiazol-2-yl)-1,4-dihydropyrimidine-5-carboxylate]: the EC50 in data set [1] (setting [3]) was 7 nM. In data set [2], the CC50 (usually the concentration giving 50% cytotoxicity) at 6 days was determined as 23800 nM.

For `COC(=O)C1=C(C2CCN(S(C)(=N)=O)CC2)NC(c2nccs2)=NC1c1ccc(F)c(F)c1Cl` (stereo not shown) [Compound 205A, methyl 4-(2-chloro-3,4-difluorophenyl)-6-(1-(S-methylsulfonimidoyl)piperidin-4-yl)-2-(thiazol-2-yl)-1,4-dihydropyrimidine-5-carboxylate], in data set [1], the EC50 worked out at 7 nM. This compound also gave a CC50 at 6 days in data set [2] of 42300 nM.

In the case of `COC(=O)C1=C(C23CC(NS(=O)(=O)c4cccc(C(=O)O)c4)(C2)C3)NC(c2nccs2)=NC1c1ccc(F)cc1Cl` (stereo not shown) [Compound 208B, 3-(N-(3-(6-(2-Chloro-4-fluorophenyl)-5-(methoxycarbonyl)-2-(thiazol-2-yl)-3,6-dihydropyrimidin-4-yl)bicyclo[1.1.1]pentan-1-yl)sulfamoyl)benzoic acid], the half-maximal effective concentration (EC50) in data set [1] (setting [3]) is 280 nM. This compound returned a CC50 at 6 days in data set [2] greater than 100000 nM.

As to `COC(=O)C1=C([C@@H]2CO[C@@H](C(=O)O)C2)NC(c2nccs2)=N[C@H]1c1cccc(F)c1Cl` [Compound 212A], the EC50 in data set [1] (setting [3]) turned out to be 1010 nM. Moreover, in data set [2], the CC50 at 6 days was greater than 100000 nM.

As for `COCCS(=O)(=O)N1CCC(C2=C(C(=O)OC)C(c3ccc(F)cc3Cl)N=C(c3nccs3)N2)CC1` (stereo not shown) [Compound 215, Methyl 4-(2-chloro-4-fluorophenyl)-6-(1-((2-methoxyethyl)sulfonyl)piperidin-4-yl)-2-(thiazol-2-yl)-1,4-dihydropyrimidine-5-carboxylate], the EC50 in data set [1] (setting [3]) came out at 51 nM. In data set [2], the CC50 at 6 days is 52700 nM.

With `COC(=O)C1=C(C2CCN(S(=O)(=O)CC(F)(F)F)CC2)NC(c2nccs2)=NC1c1ccc(F)cc1Cl` (stereo not shown) [Compound 216, Methyl 4-(2-chloro-4-fluorophenyl)-2-(thiazol-2-yl)-6-(1-((2,2,2-trifluoroethyl)sulfonyl)piperidin-4-yl)-1,4-dihydropyrimidine-5-carboxylate], the EC50 in data set [1] (setting [3]) is 90 nM. The same compound gave a CC50 at 6 days in data set [2] greater than 100000 nM.

Turning to `COC(=O)C1=C(C2CCCC3(C2)OCCO3)NC(c2nccs2)=NC1c1ccc(F)cc1Cl` (stereo not shown) [Compound 218, Methyl 4-(2-chloro-4-fluorophenyl)-6-(1,4-dioxaspiro[4.5]decan-7-yl)-2-(thiazol-2-yl)-1,4-dihydropyrimidine-5-carboxylate], the EC50 in data set [1] (setting [3]) amounted to 148 nM. This compound also displayed a CC50 at 6 days in data set [2] of 29700 nM.

As for `COC(=O)C1=C(C2CCN(S(=O)(=O)CC(C)(C)C(=O)O)CC2)NC(c2nccs2)=NC1c1ccc(F)cc1Cl` (stereo not shown) [Compound 223, 3-((4-(6-(2-Chloro-4-fluorophenyl)-5-(methoxycarbonyl)-2-(thiazol-2-yl)-3,6-dihydropyrimidin-4-yl)piperidin-1-yl)sulfonyl)-2,2-dimethylpropanoic Acid], in data set [1] (setting [3]), the EC50 worked out at 145 nM. The same compound displayed a CC50 at 6 days in data set [2] of 50000 nM.

Take `COC(=O)C1=C([C@H]2CC[C@H](C(=O)O)CC2)NC(c2nccs2)=NC1c1ccc(F)cc1Br` (stereo partly drawn) [Compound 225, (trans)-4-(6-(2-Bromo-4-fluorophenyl)-5-(methoxycarbonyl)-2-(thiazol-2-yl)-3,6-dihydropyrimidin-4-yl)cyclohexanecarboxylic Acid]: in data set [1] (setting [3]), the concentration giving a half-maximal response (EC50) is 87 nM. The same compound displayed a CC50 at 6 days in data set [2] of no less than 100000 nM.

Consider `COC(=O)C1=C([C@H]2CC[C@H](C(=O)O)CC2)NC(c2nccs2)=NC1c1ccc(F)c(F)c1C` (stereo partly drawn) [Compound 227A, (trans)-4-(−6-(3,4-Difluoro-2-methylphenyl)-5-(methoxycarbonyl)-2-(thiazol-2-yl)-3,6-dihydropyrimidin-4-yl)cyclohexanecarboxylic Acid], for which the EC50 in data set [1] (setting [3]) came out at 96 nM. This compound displayed a CC50 at 6 days in data set [2] of 37600 nM.

In the case of `COC(=O)C1=C([C@H]2CC[C@H](C(=O)O)CC2)NC(c2nccs2)=NC1c1ccc(F)c(F)c1Br` (stereo partly drawn) [Compound 229B, (trans)-4-(6-(2-Bromo-3,4-difluorophenyl)-5-(methoxycarbonyl)-2-(thiazol-2-yl)-3,6-dihydropyrimidin-4-yl)cyclohexane-carboxylic Acid], in data set [1] (setting [3]), the EC50 was 11 nM. In addition, the CC50 at 6 days in data set [2] amounted to 32100 nM.

For the compound `COC(=O)C1=C(C2CCN(S(=O)(=O)CCC(=O)O)CC2)NC(c2nccs2)=NC1c1ccc(F)c(F)c1Cl` (stereo not shown) [Compound 230, 3-((4-(6-(2-Chloro-3,4-difluorophenyl)-5-(methoxycarbonyl)-2-(thiazol-2-yl)-3,6-dihydropyrimidin-4-yl)piperidin-1-yl)sulfonyl)propanoic Acid], the EC50 in data set [1] (setting [3]) was found to be 146 nM. The cytotoxic concentration (CC50) at 6 days in data set [2] is greater than 100000 nM.

For the compound `COC(=O)C1=C(C2CCN(S(=O)(=O)[C@H]3C[C@H](C(=O)O)C3)CC2)NC(c2nccs2)=NC1c1ccc(F)cc1Br` (stereo partly drawn) [Compound 241B, (trans)-3-((4-(−6-(2-Bromo-4-fluorophenyl)-5-(methoxycarbonyl)-2-(thiazol-2-yl)-3,6-dihydropyrimidin-4-yl)piperidin-1-yl)sulfonyl)cyclobutanecarboxylic Acid], in data set [1] (setting [3]), the EC50 was 120 nM. In data set [2], this compound displayed a CC50 at 6 days of 60000 nM.

Consider `COC(=O)C1=C(C2CCN(S(=O)(=O)C3CN(CCOC(C)(C)C)C3)CC2)NC(c2nccs2)=NC1c1ccc(F)c(F)c1Cl` (stereo not shown) [Compound 248, Methyl 6-(1-((1-(2-(tert-butoxy)ethyl)azetidin-3-yl)sulfonyl)piperidin-4-yl)-4-(2-chloro-3,4-difluorophenyl)-2-(thiazol-2-yl)-1,4-dihydropyrimidine-5-carboxylate], for which the EC50 in data set [1] (setting [3]) was found to be 56 nM. The compound also gave a half-maximal cytotoxic concentration (CC50) at 6 days in data set [2] of 3500 nM.

In the case of `COC(=O)C1=C(C2CCN(S(=O)(=O)c3cnn(C4CC4)c3)CC2)NC(c2nccs2)=NC1c1ccc(F)cc1Cl` (stereo not shown) [Compound 254], the EC50 in data set [1] (setting [3]) was found to be 47 nM. Moreover, the cytotoxic concentration (CC50) at 6 days in data set [2] is greater than 100000 nM.

Consider `COC(=O)C1=C(C2CCN(S(=O)(=O)C3COC3)C2)NC(c2nccs2)=NC1c1ccc(F)cc1Cl` (stereo not shown) [Compound 255, Methyl 4-(2-chloro-4-fluorophenyl)-6-(−1-(oxetan-3-ylsulfonyl)pyrrolidin-3-yl)-2-(thiazol-2-yl)-1,4-dihydropyrimidine-5-carboxylate], for which the EC50 in data set [1] (setting [3]) came to 49 nM. Also, in data set [2], the CC50 at 6 days was 24100 nM.

On to `COC(=O)C1=C(C23CC(C(=O)O)(C2)C3)NC(c2nccs2)=NC1c1ccc(F)cc1Cl` (stereo not shown) [Compound 258B, 3-(6-(2-Chloro-4-fluorophenyl)-5-(methoxycarbonyl)-2-(thiazol-2-yl)-3,6-dihydropyrimidin-4-yl)bicyclo[1.1.1]pentane-1-carboxylic Acid], for which, in data set [1] (setting [3]), the EC50 is 401 nM. The CC50 at 6 days in data set [2] came to 27400 nM.

Take `CNC(=O)C1COC(C2=C(C(=O)OC)C(c3cccc(F)c3Cl)N=C(c3nccs3)N2)C1` (stereo not shown) [Compound 263, Methyl 4-(2-chloro-3-fluorophenyl)-6-(4-(methylcarbamoyl)-tetrahydrofuran-2-yl)-2-(thiazol-2-yl)-1,4-dihydropyrimidine-5-carboxylate]: the EC50 in data set [1] (setting [3]) was 150 nM. Moreover, the CC50 at 6 days in data set [2] was 81100 nM.

As to `COC(=O)C1=C(C2CNC(=O)C2)NC(c2nccs2)=NC1c1cccc(F)c1Cl` (stereo not shown) [Compound 284, methyl 4-(2-chloro-3-fluorophenyl)-6-(−5-oxopyrrolidin-3-yl)-2-(thiazol-2-yl)-1,4-dihydropyrimidine-5-carboxylate], in data set [1] (setting [3]), the EC50 is 226 nM. The same compound displayed a CC50 at 6 days in data set [2] of 21100 nM.

For the compound `COC(=O)C1=C(C2CC(O)C2)NC(c2nccs2)=NC1c1ccc(F)cc1Cl` (stereo not shown) [Compound 295, Methyl 4-(2-chloro-4-fluorophenyl)-6-(3-hydroxycyclobutyl)-2-(thiazol-2-yl)-1,4-dihydropyrimidine-5-carboxylate], in data set [1] (setting [3]), the EC50 was 215 nM. The same compound displayed a CC50 at 6 days in data set [2] of 64200 nM.

In the case of `COC(=O)C1=C(C2CCN(C(N)=O)CC2)NC(c2nccs2)=NC1c1ccc(F)cc1Cl` (stereo not shown) [Compound 303, Methyl 6-(1-carbamoylpiperidin-4-yl)-4-(2-chloro-4-fluorophenyl)-2-(thiazol-2-yl)-1,4-dihydropyrimidine-5-carboxylate], in data set [1] (setting [3]), the EC50 came out at 54 nM. The compound further had a CC50 at 6 days in data set [2] greater than 100000 nM.

As to `COC(=O)C1=C(C2CCN(S(=O)(=O)[C@H]3C[C@H](C(=O)O)C3)CC2)NC(c2nccs2)=NC1c1ccc(F)c(F)c1C` (stereo partly drawn) [Compound 309C, (trans)-3-((4-(6-(3,4-Difluoro-2-methylphenyl)-5-(methoxycarbonyl)-2-(thiazol-2-yl)-3,6-dihydropyrimidin-4-yl)piperidin-1-yl)sulfonyl)cyclobutanecarboxylic Acid], in data set [1] (setting [3]), the EC50 was 47 nM. The same compound yielded a CC50 at 6 days in data set [2] of 36200 nM.

The values are drawn from patent US11639350B2, “Heteroaryldihydropyrimidine derivatives and methods of treating hepatitis B infections” (Janssen Pharmaceutica NV, priority 2018, dated 2023).
